Consider 1 compound from patent US20110054033A1, “METHODS OF USING ABSCISIC ACID FOR AMELIORATING HYPERTENSION AND VASCULAR INFLAMMATION” (Virginia Tech Intellectual Properties, Inc., priority 2009, published 2011).

In assay [1] the test system is endothelial nitric oxide synthase (eNOS). The experiment in a line: Aortic gene expression by real-time RT-PCR: eNOS. It is filed as in vivo, mice. The conditions noted are these: day 84, ratio to β-actin. The procedure: (§1) FIG. 4 are photos and graphs showing aortas collected on day 84 of dietary intervention. Representative photomicrographs (100×) of aortic root specimens from (A) control and (B) ABA-fed mice. (C) Analysis of lumenal areas and (D) tunica media areas were performed with aortic cross-sections using Image Pro Plus software. (E) Aortic thickness was analyzed as a ratio of the intima to the media. Gene expression in the aorta of (F) endothelial nitric oxide synthase (eNOS) and (G) 15-lipoxygenase (15-LOX) were measured as a ratio to the house-keeping gene β-actin. Data were analyzed as a completely randomized design.
Total RNA was isolated from aortas using the RNA isolation Minikit (Qiagen) according to the manufacturer's instructions. Total RNA (1 μg) was used to generate a complementary DNA (cDNA) template using the iScript cDNA Synthesis Kit (Bio-Rad, Hercules, Calif.). […] Each gene amplicon was purified with the MiniElute PCR Purification Kit (Qiagen) and quantitated on an agarose gel by using a DNA mass ladder (Promega). […]
Complementary DNA (cDNA) concentrations for genes of interest were examined by real-time quantitative PCR using an iCycler IQ System and the iQ SYBR green supermix (Bio-Rad). […] Results are presented as a starting quantity of target cDNA (picograms) per microgram of total RNA. […]

Assay [2] has as its system human aorta endothelial cells (HAECs). The experiment in a line: Nitric oxide in HAEC culture supernatants. The class given is cell-based. The conditions noted are these: 0.001-10 μM ABA. The procedure:
FIG. 7 are graphs showing effect of ABA on (A) cAMP; (B) NO; and (C) eNOS. (A) Confluent human aortic endothelial cell (HAEC) were serum-starved using HBSS buffer for 30 min and then stimulated with various concentrations of ABA (0, 0.01, 0.1, 1, 10 μM) or Forskolin (1 μM) for […]. After removing supernatant, cells were lysated with 0.1 M HCL for 20 minutes to measure non-acetylated cAMP. (B) Confluent HAEC were serum-starved using HBSS buffer for 30 minutes and then stimulated with various concentrations of ABA (0, 0.001, 0.01, 0.1, 1, 10 μM) for 15 minutes to measure NO. Results (pmol/ml) from four independent experiments are depicted. […]
Confluent human aorta endothelial cells (HAECs) at passage 3 maintained with EGM-2 media (Clonetics, Walkerville, Md.) were adapted to Hank's buffered salt solution buffer for 30 min and then stimulated with ABA or forskolin (1 μM) for 10 min. For intracellular assessment of cAMP, the cells were harvested into 0.1 M HCL and the lysates were obtained by sonication and centrifugation. cAMP the lysates were determined by using an EIA kit (Assay Designs, Ann Arbor, Mich.) and results were obtained from four independent experiments. Nitric oxide levels in the cell culture supernatants were determined with the Nitric Oxide Assay Kit according to manufacturer's instructions (Assay Designs). […]

The test system of the next assay is db/db mice. The conditions noted are these: Guri et al., cited from earlier work.
The next assay has as its system ApoE-deficient mice. Description: Histology analyses of the aorta (areas, thickness, lesion severity). It is filed as in vivo. How it is done:
as §1
FIG. 5 are photos and graphs showing histological examination of aortic lesions. ApoE −/− mice were fed high fat diets created with or without abscisic acid (ABA, 100 mg/kg diet). After 84 days aortas were excised and lesions were analyzed histologically according to methods described by van Vlijmen et al[13]. Representative photomicrographs (100×) of a (A) mild and (B) severe lesion are depicted. (C) The total number of mild (categories 1-3) and severe (categories 4-5) lesions from control and ABA-fed mice are shown. (D) Lesional areas, as a percent of total lumen area, for control and ABA-fed mice were calculated from histological sections with Image Pro Plus software. Data are represented as mean±standard error.
The aortic root sections used for histological analyses were perfusion-fixed with paraformaldehyde. Samples of aortas were cut transversally, stained with hematoxylin and eosin, and analyzed histologically. Areas for the lumen, tunica media, and aortic lesions and the thicknesses of the tunica intima and media were assessed using Image Pro Plus 6.1 software (Media Cybernetics, Bethesda, Md.). For thickness analyses, eight different measurements from the intima and media were taken using previously described methods (Hazell et al., Free Radic. Biol. Med. 31:1254-62, 2001). For semiquantitative assessment of lesion severity, methods described by van Vlijmen et al were used (van Vlijmen et al., J. Clin. Invest. 93:1403-10, 1994). Briefly, lesions were classified into five categories (1) early fatty streak: per section up to 10 foam cells present in the intima, (2) regular fatty streak: more than 10 cells present in the intima, (3) mild plaque: extension of foam cells into the media and mild fibrosis of the media without significant loss in architecture, (4) moderate plaque: foam cells in media, fibrosis, cholesterol clefts, mineralization, and/or necrosis of the media, (5) severe plaque: as 4 but more extensive and deeper in the media. Scoring classifications were applied to 15 lesions from control and ABA-fed mice. Lesions falling in categories 1-3 were classified as mild and 4-5 as severe.

For the compound `CC1=CC(=O)CC(C)(C)C1(O)/C=C/C(C)=C\C(=O)O` (racemic) [ABA, abscisic acid], the “Aortic expression of eNOS mRNA vs control” value in assay [1] is “significantly elevated”. Moreover, in assay [2], the NO production entry is listed as “enhanced NO production”. Also, the Glucose tolerance entry in the assay with db/db mice (db/db mice, 2007 and 2008) is “improved glucose tolerance”. Moreover, in the assay with db/db mice (obese db/db mice, 2008), the “Macrophage infiltration into white adipose tissue” value is “significantly reduces macrophage infiltration” and the “Reduction in MCP-1 expression in the adipose tissue stromal-vascular fraction” value is recorded as “approximately 15 fold”. Moreover, the “Lesion area as a percent of total lumenal area vs control” value with ApoE-deficient mice (day 84) is “significantly decreased”. Moreover, in the assay on ApoE-deficient mice (day 84, aortic cross-sections), the “Aortic luminal area vs control” value was “no significant differences” and the “Aortic tunica media area vs control” value is on record as “no significant differences”. Further, in the assay with ApoE-deficient mice (day 84, aortic root), the “Intima to media ratio vs control” value is “significantly lower”. In the assay with ApoE-deficient mice (of 15 lesions scored, day 84), the “Number of mild lesions (categories 1-3)” value is 10. Besides, the “Number of severe lesions (categories 4-5)” value in the assay on ApoE-deficient mice (of 15 lesions scored, day 84, control-fed mice 8 of 15) is 5.
